Data set [1] concerns T. b. brucei Squib-427 strain. The data set can be described thus: Anti-trypanosomal activity, T. b. brucei trypomastigotes (resazurin). It counts as cell-based, Trypanosoma brucei brucei. Particulars: Trypanosoma brucei, 72 h. Here is the method:
(§1) Anti-trypanosomal activity: T. b. brucei Squib-427 strain (suramin-sensitive) and T. b. gambiense (ITMAP/1893) were cultured at 37 °C and 5% CO2 in HMI-9 medium supplemented with 10% FCS [90]. About 10^4 trypomastigotes/well were added to each well and parasite growth was assessed after 72 h at 37 °C by adding resazurin and reading at ex 550 nm, em 590 nm. Suramin was included as reference drug for T. b. brucei and pentamidine for T. b. gambiense.

For data set [2], the target named is T1, S. mansoni TGR (Schistosoma mansoni, UniProt Q962Y6).
T1 construct: made in house; host or cells: E. coli
T1 sequence (Q962Y6 1-598): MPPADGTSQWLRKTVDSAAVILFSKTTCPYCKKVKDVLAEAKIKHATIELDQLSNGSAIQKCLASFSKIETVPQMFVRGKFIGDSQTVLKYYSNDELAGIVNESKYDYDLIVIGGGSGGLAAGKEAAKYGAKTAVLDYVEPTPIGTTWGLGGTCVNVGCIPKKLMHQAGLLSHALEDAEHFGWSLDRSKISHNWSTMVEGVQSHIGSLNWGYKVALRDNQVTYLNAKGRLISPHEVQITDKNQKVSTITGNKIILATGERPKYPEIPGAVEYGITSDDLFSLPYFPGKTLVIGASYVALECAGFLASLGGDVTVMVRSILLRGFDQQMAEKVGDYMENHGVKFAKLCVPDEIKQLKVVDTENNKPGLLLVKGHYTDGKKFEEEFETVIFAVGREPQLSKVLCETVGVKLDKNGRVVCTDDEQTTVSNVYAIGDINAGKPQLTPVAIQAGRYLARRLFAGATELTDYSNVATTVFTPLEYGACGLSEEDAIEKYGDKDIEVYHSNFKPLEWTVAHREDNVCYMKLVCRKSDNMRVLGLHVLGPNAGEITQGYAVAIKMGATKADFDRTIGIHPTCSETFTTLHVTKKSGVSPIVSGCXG
Also on record: method as in PMID 17579510. The following applies: 20 nM enzyme, 8 mM substrate; after 15 min preincubation; read-out: IC50 S. mansoni TGR, substrate HED + GSSG; cited from earlier work.

Data set [3] deals with Human TrxR. The following applies: 3 mM DTNB, read-out: IC50 Human TrxR, substrate DTNB, cited from earlier work.
In the next data set the test system is Human GR. Particulars: read-out: IC50 Human GR, substrate GSSG, cited from earlier work.
For data set [4], the target named is T1, S. mansoni TGR. Also on record: method as in PMID 17579510. The following applies: 20 nM enzyme, 3 mM DTNB; after 15 min preincubation; read-out: IC50 S. mansoni TGR, substrate DTNB; cited from earlier work.
In data set [5] the target is T1, S. mansoni TGR. Also on record: method as in PMID 17579510. The following applies: 20 nM enzyme, 100 µM GSSG; after 15 min preincubation; read-out: IC50 S. mansoni TGR, substrate GSSG; cited from earlier work.
The target in data set [6] is human thioredoxin reductase (TrxR). On the set-up: method as in PMID 9685351. Particulars: cited from earlier work.
The nature of data set [7]: in vitro. Particulars: human. The method, then: (§2) Toxicity in human fetal lung fibroblast (MRC-5) cell line and primary mouse macrophages (PMM) was assessed using a previously reported assay in 96-well microtiter plates. Tamoxifen and miltefosine were included as reference drugs (Table 10).
(§3) For MRC5SV2 or PMM cells, the assays were performed in 96-well microtiter plates, each well containing 10 µL of compound dilution and 190 µL of cell inoculum (3 × 10^4 cells/mL) as reported. Cell growth was compared to untreated controls (100% growth) and assay-media controls (0% growth). After three-day incubation, cell viability was assessed fluorometrically by adding resazurin [50 µL/well of a stock solution in phosphate buffer (50 µg/mL)], incubating for 4 h and measuring fluorescence (ex 550 nm, em 590 nm). The results are expressed as percentage reduction in cell growth as compared to untreated control wells. […] Tamoxifen was included as the reference drug.

Data set [8] concerns T. b. gambiense (ITMAP/1893). The data set can be described thus: Anti-trypanosomal activity, T. b. gambiense trypomastigotes (resazurin). It counts as cell-based, Trypanosoma brucei gambiense. Particulars: Trypanosoma brucei, GAMBIENSE, 72 h, read-out: T. b. gambiense IC50 (µM) ± SD. The method, then:
as §1
(In general: Alamar Blue is a resazurin reagent that responds to reducing activity.)

The test system of data set [9] is Acanthamoeba castellanii ATCC 30010. The data set is described as follows: Anti-acanthamoebal activity on A. castellanii trophozoites (resazurin). It counts as cell-based. The following applies: ATCC30010, 72 h, read-out: Acanthamoeba castellanii ATCC 30010 IC50 (µM) ± SD. The method, then: (§4) In vitro anti-leishmanial evaluation was perfomed on both axenic and intramacrophage L. donovani amastigotes as previously described. […] Briefly, compounds were distributed in 96-well plates using 2-fold dilutions in 100 µL PYG medium. A. castellanii trophozoites were added to each well at 5 × 10^4 amoeba/mL in 200 µL final volume. L. donovani axenic amastigotes were added to each well at 10^6 parasites/mL in 200 µL final volume. After 72 h incubation at 27 °C, 20 µL of 1 mM resazurin was added to each well and further incubated at 27 °C for 8 h for A. castellanii and for 24 h for L. donovani axenic amastigotes. In living cells, resazurin is reduced in resorufin. This conversion is monitored by measuring the absorbance at specific wavelengths of resorufin (570 nm) and resazurin (600 nm) using a microplate reader (Labsystems Multiskan MS, McLean, VA, USA). In this assay, the activity was expressed in IC50. Miltefosine and pentamidine were used as reference drugs. All experiments were performed in three independent experiments.

A short description of data set [10]: Cytotoxicity on RAW 264.7 macrophages. It counts as cell-based, murine. The following applies: mouse, RAW 264.7 macrophages; 48 h incubation; read-out: Cytotoxicity on RAW 264.7 Macrophages CC50 (µM) ± SD. Here is the method:
Cytotoxicity was evaluated on RAW 264.7 macrophages that were maintained at 37 °C with 5% CO2 in Dulbecco’s Modified Eagle’s Medium (DMEM, Invitrogen, Toulouse, France) supplemented with 100 U/mL penicillin-streptomycin (Invitrogen) and 10% heat-inactivated fetal bovine serum, as previously described. Briefly, cells were plated in 96-well microplates at a density of 2 × 10^4 cells per well. After incubation for 24 h at 37 °C in 5% CO2, the medium was removed from each well and 100 µL of medium containing 2-fold serial dilutions of compounds was added to each well. After 48 h incubation at 37 °C in 5% CO2, 10 µL of 450 µM resazurin was added to each well and further incubated in the dark for 4 h. Cell viability was determined as described above. The cytotoxicity of the compounds was expressed as CC50.

Data set [11] concerns Human TrxR. The following applies: 20 µM substrate, after 10 min enzyme-NADPH-gold complex preincubation, read-out: IC50 Human TrxR, substrate hTrxC72S, cited from earlier work.
A further data set has as its system T. cruzi Tulahuen CL2. The data set can be described thus: Anti-Chagas activity, T. cruzi on MRC-5 cells. It counts as cell-based. The following applies: Trypanosoma cruzi, TULAHUEN, MRC5, 168 h; amastigotes, MRC-5 host cells, 7 days; read-out: Trypanosoma cruzi IC50 (µM) ± SD. The method, then: Anti-Chagas activity: T. cruzi Tulahuen CL2 (benznidazole-sensitive, LacZ-reporter strain) was maintained on MRC-5 cells in minimal essential medium (MEM) supplemented with […], 16.5 mM sodium hydrogen carbonate and 5% FCS. In the assay, 4 × 10^3 MRC-5 cells and 4 × 10^4 parasites were added to each well. After incubation at 37 °C for 7 days, parasite growth was assessed by adding the substrate chlorophenol red -D-galactopyranoside. The color reaction was read at 540 nm after 4 h and absorbance values were expressed as a percentage of the blank controls. Benznidazole was included as reference drug.

Data set [12] has as its system Leishmania donovani LV9 axenic amastigotes. The data set is described as follows: L. donovani LV9 axenic amastigotes (resazurin). The following applies: Leishmania donovani; read-out: Leishmania donovani LV9 Axenic Amastigotes IC50 (µM) ± SD. It counts as cell-based. Here is the method:
as §4

Data set [13] relates to L. infantum MHOM/MA (BE)/67 amastigotes. The data set can be described thus: Anti-leishmanial activity, L. infantum amastigotes in primary peritoneal mouse macrophages. It counts as cell-based, Leishmania infantum. Particulars: Leishmania infantum, Macrophage, 120 h; amastigotes in primary peritoneal mouse macrophages, 5 days; read-out: Leishmania infantum IC50 (µM) ± SD. Here is the method: Anti-leishmanial activity: L. infantum MHOM/MA (BE)/67 amastigotes were collected from the spleen of an infected donor hamster and used to infect primary peritoneal mouse macrophages grown in a 96-well plate. After 2 days outgrowth, 5 × 10^5 amastigotes were added to each well and incubated for 2 h at 37 °C. The compounds were subsequently added and the plates were further incubated for 5 days at 37 °C and 5% CO2. Parasite burdens (mean number of amastigotes/macrophage) were microscopically assessed on 500 cells after Giemsa staining and expressed as a percentage of the blank controls. Miltefosine was included as reference drug. The use of laboratory rodents was carried out in accordance to all mandatory guidelines (EU directives, including the Revised Directive 2010/63/EU on the Protection of Animals used for Scientific Purposes that came into force on 1 January 2013, and the declaration of Helsinki in its latest version) and was approved by the Ethical Committee of the University of Antwerp, Belgium [UA-ECD 2011–77 (17-02-2012 and UA-ECD 2015-90].

A short description of data set [14]: in vitro. Particulars: mouse. Here is the method: as §2, §3
The test system of data set [15] is Leishmania donovani LV9 intramacrophage amastigotes. The data set is described as follows: L. donovani LV9 intramacrophage amastigotes. It counts as cell-based. The following applies: Leishmania donovani; read-out: Leishmania Donovani LV9 Intramacrophage Amastigotes IC50 (µm) ± SD. Here is the method: as §4

Like-named read-outs stand apart in the source and are kept apart here.

As usually defined, the IC50 is the concentration that gives 50% inhibition. Usually Ki stands for a measure of affinity in units of concentration, obtained from inhibition or displacement.

In the case of `Cc1ccc(C(=O)Nc2ccc(S(=O)(=O)O)c3cc(S(=O)(=O)O)cc(S(=O)(=O)O)c23)cc1NC(=O)c1cccc(NC(=O)Nc2cccc(C(=O)Nc3cc(C(=O)Nc4ccc(S(=O)(=O)O)c5cc(S(=O)(=O)O)cc(S(=O)(=O)O)c45)ccc3C)c2)c1` [Suramin], the IC50 in data set [1] was found to be 30 nM.
On to `OC[C@H]1O[C@H]([S-])[C@H](O)[C@@H](O)[C@@H]1O.[Au+]` [Aurothioglucose], for which the IC50 at S. mansoni TGR [2] was 400 nM; in the data set with Human TrxR [3] (2 nM enzyme, steady state kinetic studies), 65 nM; with Human GR (1.5 nM enzyme, 1 mM GSSG, steady state kinetic studies), above 100000 nM; at S. mansoni TGR [4], 70 nM; at S. mansoni TGR [5], 3000 nM. Also, the Ki in data set [6] is 4 nM.
Take `CC/C(=C(\c1ccccc1)c1ccc(OCCN(C)C)cc1)c1ccccc1` [Tamoxifen]: the CC50 at 3 days in the data set “in vitro [7]” is 10600 nM.
On to `N=C(N)c1ccc(OCCCCCOc2ccc(C(=N)N)cc2)cc1` [Pentamidine], for which the results for the IC50 in data set [8] and in [9] were 0.0011 ± 0.0001 µM and 1.39 ± 0.37 µM, respectively. Further, the CC50 at 48 h in [10] was above 25 µM.
In the case of `[Cl][Au][PH]1(c2ccccc2)C(c2ccccn2)=CC=C1c1ccccn1` [GoPI, {1-phenyl-2,5-di(2-pyridyl)phosphole}AuCl], the IC50 with Human TrxR [3] (3.7 nM enzyme, after 10 min preincubation) is 1 nM; with Human TrxR [3] ([…] enzyme, after 10 min preincubation) it was 0.8 nM; with Human GR (1.4-[…] enzyme, 100 µM GSSG, after 10 min preincubation) it was 2 nM; in the data set on Human GR ([…] enzyme, 100 µM GSSG, after 10 min preincubation) it was 1 nM; in the data set with Human TrxR [11] (24 nM enzyme), 6.9 nM; in the data set on Human TrxR [11] (30 nM enzyme), 7 nM.
On to `O=C(Cn1ccnc1[N+](=O)[O-])NCc1ccccc1` [Benznidazole, reference compound], for which the IC50 with T. cruzi Tulahuen CL2 is 2.89 ± 0.94 µM.
Consider `CCCCCCCCCCCCCCCCOP(=O)([O-])OCC[N+](C)(C)C` [Miltefosine], for which the IC50 in data set [12] is 1.28 ± 0.12 µM; in data set [9] it was 9.21 ± 2.04 µM; in [13], 11.3 ± 2.88 µM; in [1], 11400 nM; in data set [15], 4490 ± 1080 nM. In addition, the CC50 at 3 days in “in vitro [14]” came to 20000 nM. Further, the CC50 at 48 h in [10] was above 25 µM.

Source of the values: publication PMC7663263 (Molecules, 2020).
